Assay [1] has as its target human αvβ3 receptor (Homo sapiens, UniProt P05106+P06756). Briefly: Displacement of the binding Vitronectin/Vitronectin receptor (αvβ3), competition test. Particulars: human vitronectin coated plates, 3 hours at ambient temperature, read-out: Competition test Vn/VR (αvβ3) binding IC50 en. How it is done: 1—Study of the Products of the Invention on the Displacement of the Binding: Vitronectin/Vitronectin Receptor (αvβ3) […]
MaxiSorp 96-well plates are coated overnight at 4° C., with 100 μl of human Vitronectin (cf Yatohgo et al. Cell., Structure and fraction 13: 281-292 (1988)) at 2 μg/ml, (Dilution in coating buffer).
The next day, the wells are emptied and the ligands (Vitronectin) are then fixed (see fixing buffer) for one hour at ambient temperature under gentle agitation.
The wells are washed six times (see washing buffer), then the following are added to each well and in this order:
40 μl of incubation buffer, 10 μl of the dilution of the product to be tested, (the products are diluted in a 50/50 mixture of DMSO-H2O) 50 μl of human αvβ3 receptor (cf Pytela et al. Methods Enzymol (1987) 144:475) (dilution in incubation buffer, to be adapted according to the receptor batch and according to the ligand).
The ligand, the human αvβ3 receptor and the products to be studied are incubated for 3 hours at ambient temperature under gentle agitation.
The wells are again washed six times, then incubated for 2 hours at ambient temperature under gentle agitation, in the presence of 100 μl of anti-receptor, 4B12-HRP antibody coupled to a peroxidase (the 4B12-HRP antibody is diluted in an incubation buffer. The dilution is to be adapted according to the receptor batch).
This kit contains a bottle A of substrate (3,3′,5,5′-tetramethylbenzidine at 0.4 g/l) and a bottle B (H2O2 at 0.02% in a citrate/citric acid buffer). Extemporaneously, a volume of A is mixed with a volume of B, then the reaction mixture is distributed at a rate of 100 μl/well. The enzymatic reaction develops over […] for Vitronectin/αvβ3, then its development is stopped by the addition of 100 μl of 1M phosphoric acid. The optical density is measured at 450 nm. […]
coating buffer: Carbonate 0.05 M, NaOH pH 9.6 fixing buffer: PBS containing 0.5% BSA (pH 7.4) washing buffer: PBS containing 0.05% Tween 20 (pH 7.4)
Expression of the Results:
The following curve is traced: the percentage of binding of the human vitronectin as a function of the logarithm of the concentration of each product tested.
For each product the IC50 is determined according to the following formula:
BO=Maximum binding in the absence of any product
Bmin=Minimum binding in the presence of the highest concentration of product.

Assay [2] deals with bone resorption (skullcaps of new-born mice). Briefly: Test of mouse calvarium: bone resorption by release of 45Ca from skullcaps of new-born mice, ex-vivo. Particulars: inhibition of bone resorption (45Ca release) in half-calvaria, 48 hours contact; for inhibition at 10 µM: Mus musculus, read-out: Mouse cavarium % inhibition at 10 μM. From the text:
2—Test of Mouse Calvarium
Injection of a tracer dose of ^45Ca (CaCl2) to gestating female mice in order to study bone resorption by measuring the release of ^45Ca from the skullcaps of new-born mice.
Determination of the activity of a molecule on bone resorption, ex-vivo study.
Vehicle: DMSO, H2O/BSA (0.1%)
Dose: Variable ([…] in screening).
Echistatin (ref. H-9010-BACHEM)
^45Ca in the form of an aqueous solution of CaCl2—ref. CES3 AMERSHAM or NEZ-013 NEN.
Vehicle: Physiological serum
Dose: 25 μCi/mouse/0.4 ml
CMRL 1066 with phenol red (ref. 041-01535 M/GIBCO) supplemented by 0.1% BSA and penicillin/streptomycin.
1) Injection of ^45Ca to Gestating Mice (OF1, Strain: Swiss)
a) Preparation of the Labelled Solution:
190 μl of the mother solution of calcium at 2 mci/ml is added to 6 ml of physiological serum.
On the 17th day of gestation the mice receive 400 μl of this solution by intravenous route, that is 25 μCi/mouse.
2) Removal of the Tissue (Skullcap (Calvarium))
Six days after their birth the new-born mice are decapitated, then the head is recovered, and the skin is incised from the nape to the front. The skullcap is removed by cutting it out with scissors, and using a punch two exactly identical half-calvaria (one on the left and one on the right) are cut from the parietal bones. One will serve as the control, the other will be used to test the product to be studied.
Each half calvarium is placed in a well of a 24-well plate, containing 1 ml of medium, on a 100 μm polyethylene and nylex support, in order to avoid all contact with the bottom of the well.
After 24 hours, the polyethylene supports carrying the calvaria are transferred into new 24-well plates containing 1 ml of fresh medium and the products to be tested or their solvents. 200 μl of medium from the first plates is removed from each well and a first count of the radioactivity is carried out (value A).
This change of medium allows all the mechanical stress associated with the removal to be eliminated.
48 hours after putting the tissues in contact with the studied products, 200 μl of medium is removed from each well and counted (value B), so as to determine the quantity of ^45Ca released from the medium during the so-called resorption phase.
The calvarium is then completely demineralized in 1 ml of 5% trichloracetic acid and after digestion, 200 μl is also removed and counted so as to determine the quantity of calcium remaining in the bone (value C). Expression of the results
A % of bone resorption is calculated for each half-calvarium (each well) in the following manner:
% bone resorption=dpm B/dpm (A+B+C)×100
The sum of dpm A+B+C represents the quantity of ^45Ca incorporated in each bone part on the day of removal.
In order to measure the effect of a product, the ratio of the percentage of bone resorption of the treated well and of the corresponding control well is calculated for each point. The value found called the resorption index is comprised between 0 and 1 if the product inhibits bone resorption and is >1 if the product potentializes it. The average of the 6 indices (since there are 6 points/group) of each product is then calculated which gives one index/product. If this index is subtracted from the value 1, the inhibitory power of the product is obtained, which can be expressed as a percentage.
Furthermore a statistical test (Student T-test) is carried out by comparing point/point the individual resorption indices.

Counter-ions that a name gives are not always drawn.

Regarding “4-((4-(((Amino)iminomethyl)hydrazono)-9,10-dimethoxy-1,2,3,4,5,6-hexahydrobenz(e)azulen-8-yl)oxy)-butanoic Acid [EX. 2]”, the IC50 in assay [1] was determined as 450 nM. Further, in assay [2], the “Mouse cavarium % inhibition at 10 μM” value was found to be 19%.
As for “4-((4-(((Amino)iminomethyl)hydrazono)-9,10-dimethoxy-1,2,3,4,5,6-hexahydrobenz(e)azulen-8-yl)oxy)-pentanoic Acid [EX. 3]”, the IC50 in assay [1] came to 2100 nM.
As a reminder, the inhibition is the drop in the measured response relative to a control, in per cent. As for `COc1c(OCCC(NC(=O)OCc2ccccc2)C(=O)O)cc2c(c1OC)C1=C(CCC1)C(=NNC1=NCCCN1)CC2` (racemic), the IC50 in assay [1] was 6 nM. Moreover, the inhibition at 10 µM in assay [2] stood at 30%.
Regarding `COc1c(OCCC(NC(=O)OCc2ccccc2)C(=O)O)cc2c(c1OC)C1=C(CCC1)C(=NNC1=NCCN1)CC2` (racemic) [EX. 24, O-[4-[(4,5-dihydro-1H-imidazol-2-yl)hydrazono)-9,10-dimethoxy-1,2,3,4,5,6-hexahydro-8-benz(e)azulenyl]-N-[(phenylmethoxy)carbonyl]-DL-homoserine], the IC50 in assay [1] came to 30 nM. The inhibition at 10 µM in assay [2] is 18%.
Regarding `O=C(NC(CCOc1ccc2c(c1)CCC(=NNC1=NCCN1)C1=C2CCC1)C(=O)O)OCc1ccccc1` (racemic) [EX. 25, O-[4-[(4,5-Dihydro-1H-imidazol-2-yl)hydrazono)-1,2,3,4,5,6-hexahydro-8-benz(e)azulenyl]-N-[(phenylmethoxy)-carbonyl]-DL-homoserine], the IC50 in assay [1] was found to be 13 nM. In assay [2], the inhibition at 10 µM was determined as 26%.
For `COc1c(OCCC(NC(=O)OCc2ccccc2)C(=O)OCC(O)CO)cc2c(c1OC)C1=C(CCC1)C(=NNC1=NCCCN1)CC2` (racemic) [EX. 27, (2,3-Dihydroxypropyl) Ester of O-(9,10-Dimethoxy1,2,3,4,5,6-hexahydro 4-[(1,4,5,6-tetrahydro2-pyrimidinyl)hydrazono]-8-benz(e)azulenyl]N-[(phenylmethoxy)carbonyl]DL-homoserine.], in assay [1], the IC50 amounted to 170 nM. Moreover, the “Mouse cavarium % inhibition at 10 μM” value in assay [2] was 39%.
As to `COc1c(OCCC(NS(=O)(=O)c2cccc3cccnc23)C(=O)O)cc2c(c1OC)C1=C(CCC1)C(=NNC1=NCCN1)CC2` (racemic) [EX. 28, O-[4-[(4,5-Dihydro1H-imidazol-2-yl)hydrazono]9,10-dimethoxy 1,2,3,4,5,6-hexahydro8-benz(e)azulenyl]N-[(8-quinolinyl)sulphonyl]DL-homoserine], the IC50 in assay [1] came out at 15 nM. Besides, the inhibition at 10 µM in assay [2] was 27%.
With `COc1c(OCCC(NC(=O)OCCCn2cnc(-c3cccnc3)c2)C(=O)O)cc2c(c1OC)C1=C(CCC1)C(=NNC1=NCCN1)CC2` (racemic) [EX. 29, Monohydrochloride of O-[4-[(4,5-Dihydro1H-imidazol-2-yl)hydrazono]9,10-dimethoxy1,2,3,4,5,6-hexahydro8-benz(e)azulenyl]N-[[3-[4-(3-pyridinyl)1H-imidazol-1-yl]propoxy]carbonyl]DL-homoserine], the IC50 in assay [1] turned out to be 28 nM. For the same compound, in assay [2], the inhibition at 10 µM is 18%.
As to `COc1c(OCCC(NC(=O)OCc2ccccc2)C(=O)O)cc2c(c1OC)C1=C(CCC1)C(=NNC1=NCCCCN1)CC2` (racemic) [EX. 31, O-[9,10-Dimethoxy1,2,3,4,5,6-hexahydro4-[(4,5,6,7-tetrahydro1H-1,3-diazepin-2-yl)hydrazono]8-benz(e)azulenyl]N-[(phenylmethoxy)carbonyl]DL-homoserine], the IC50 in assay [1] worked out at 55 nM. The inhibition at 10 µM in assay [2] worked out at 20%.
With `COc1c(OCCC(NC(=O)OCc2ccccc2)C(=O)O)cc2c(c1OC)C1=C(CCC1)C(=NNC1=NC3CCCCC3N1)CC2` (racemic) [EX. 32, O-[9,10-Dimethoxy1,2,3,4,5,6-hexahydro4-[(3a,4,5,6,7,7a-hexahydro1H-benzimidazol-2-yl)hydrazono]8-benz(e)azulenyl]N-[(phenylmethoxy)carbonyl]DL-homoserine], the IC50 in assay [1] came to 35 nM.
In the case of `COc1c(OCCCCC(=O)O)cc2c(c1OC)C1=C(CCC1)C(=NNC1=NCCN1)CC2` [EX. 6, 5-(9,10-dimethoxy-1,2,3,4,5,6-hexahydro-4-(4,5-dihydro-1H-imidazolin-2-yl)hydrazono)-8-benz(e)azulenyl)oxy)-pentanoic Acid], the IC50 in assay [1] worked out at 110 nM. The inhibition at 10 µM in assay [2] was 7.5%.
For the compound `COc1c(OCCCCCC(=O)O)cc2c(c1OC)C1=C(CCC1)C(=NNC1=NCCN1)CC2` [EX. 8, 6-(4((4,5-Dihydro-1H-imidazolin-2-yl)hydrazono)-9,10-dimethoxy-1,2,3,4,5,6-hexahydro-8-benz(e)azulenyl)oxy)-hexanoic Acid], the IC50 in assay [1] worked out at 2790 nM.
As for `COc1c(OCC(=O)C(C)(C)CC(=O)O)cc2c(c1OC)C1=C(CCC1)C(=NNC1=NCCN1)CC2` [EX. 10, 5-(4((4,5-Dihydro-1H-imidazolin-2-yl)hydrazono)-9,10-dimethoxy-1,2,3,4,5,6-hexahydro-S-benz(e)azulenyl)oxy)-3,3-dimethyl-4-oxo-pentanoic Acid], the IC50 in assay [1] was determined as 800 nM. The inhibition at 10 µM in assay [2] amounted to 8%.
For `COc1c(OCCCC(=O)O)cc2c(c1OC)C1=C(CCC1)C(=NNC1=NCCN1)CC2` [EX. 11, 4-(4((4,5-Dihydro-1H-imidazolin-2-yl)hydrazono)-9,10-dimethoxy-1,2,3,4,5,6-hexahydro-8-benz(e)azulenyl)oxy)-butanoic Acid] the same measures were 50 nM and 7%.
In the case of `O=C(O)CCCOc1ccc2c(c1)CCC(=NNC1=NCCN1)C1=C2CCC1` [EX. 21, 4-(4((4,5-Dihydro-1H-imidazolin-2-yl)hydrazono)-1,2,3,4,5,6-hexahydro-8-benz(e)azulenyl)oxy)-butanoic Acid], the IC50 in assay [1] was found to be 37 nM.
In the case of `N=C(N)NN=C1CCc2cc(OCCCCC(=O)O)c3c(c2C2=C1CCC2)OCO3` [EX. 22, 5-((8-(((Amino)iminomethyl)hydrazono)-6,7,8,9,10,11-hexahydro-azuleno(5,6-d)-1,3-benzodioxol-4-yl)-oxy)-pentanoic Acid], the IC50 in assay [1] was 2360 nM.

The values above are taken from US6459001B1 (Aventis Pharma S.A., priority 1997, dated 2002).
